Assay results taken from ChEMBL document CHEMBL4610106, “Identification of the Clinical Development Candidate MRTX849, a Covalent KRASG12C Inhibitor for the Treatment of Cancer” (J Med Chem, 2020).
Values after ≈ are worked out from the molar mass of the structure shown.

Columns and labels:
[1] = target: GTPase KRas (Homo sapiens, UniProt P01116, G12C)
[2] = Clearance in CD1 mouse at 3 mg/kg, iv; format: ADME, organism-based; settings: in vivo
[3] = Half life in CD1 mouse at 3 mg/kg, iv; format: ADME, organism-based; settings: in vivo
[4] = Volume of distribution at steady state in CD1 mouse at 3 mg/kg, iv; format: ADME, organism-based; settings: in vivo, read-out: Vdss
[5] = test system: GTPase KRas (Homo sapiens), P01116 [G12C]; test: In-vivo target engagement at KRAS G12C mutant in athymic nude-Foxn1nu mouse xenografted with human NCI-H358 cells assessed as KRAS G12C modification level in tumor lysate at 10 mg/kg, po dosed via gavage as single administration measured after 6 hrs by LC-MS analysis relative to control; format: functional, organism-based; settings: Neoplasm
[6] = Cmax in CD1 mouse at 30 mg/kg, po; format: ADME, organism-based; design: dose 30 mg/kg, route oral; settings: in vivo
[7] = Tmax in CD1 mouse at 30 mg/kg, po; format: ADME, organism-based; settings: in vivo
[8] = AUC (infinity) in CD1 mouse at 30 mg/kg, po; format: ADME, organism-based; design: dose 30 mg/kg, time infinity, route oral; settings: in vivo
[9] = Oral bioavailability in CD1 mouse at 30 mg/kg; format: ADME, organism-based; settings: in vivo
[10] = test system: GTPase KRas (Homo sapiens), P01116 [G12C]; test: In-vivo target engagement at KRAS G12C mutant in athymic nude-Foxn1nu mouse xenografted with human NCI-H358 cells assessed as KRAS G12C modification level in tumor lysate at 30 mg/kg, po dosed via gavage as single administration measured after 6 hrs by LC-MS analysis relative to control; format: functional, organism-based; settings: Neoplasm
[11] = test system: GTPase KRas (Homo sapiens), P01116 [G12C]; test: In-vivo target engagement at KRAS G12C mutant in athymic nude-Foxn1nu mouse xenografted with human NCI-H358 cells assessed as KRAS G12C modification level in tumor lysate at 100 mg/kg, po dosed via gavage as single administration measured after 6 hrs by LC-MS analysis relative to contro; format: functional, organism-based; settings: Neoplasm
[12] = test system: MIA PaCa-2; test: Antitumor activity against human MIAPaCa2 cells xenografted in athymic nude-Foxn1nu mouse assessed as induction of tumor regression at 30 mg/kg, po dosed daily via gavage for 16 days; format: functional
[13] = test system: MIA PaCa-2; test: Antitumor activity against human MIAPaCa2 cells xenografted in athymic nude-Foxn1nu mouse assessed as induction of tumor regression at 30 mg/kg, po dosed daily via gavage for 16 days followed by drug cessation and measured up to 40 days; format: functional
[14] = Half life in beagle dog at 3 mg/kg, iv; format: ADME, organism-based, Canis lupus familiaris; settings: in vivo
[15] = Clearance in beagle dog at 3 mg/kg, iv; format: ADME, organism-based, Canis lupus familiaris; settings: in vivo
[16] = Volume of distribution at steady state in beagle dog at 3 mg/kg, iv; format: ADME, organism-based, Canis lupus familiaris; settings: in vivo, read-out: Vdss
[17] = Cmax in beagle dog at 10 mg/kg, po; format: ADME, organism-based, Canis lupus familiaris; design: dose 10 mg/kg, route oral; settings: in vivo
[18] = Tmax in beagle dog at 10 mg/kg, po; format: ADME, organism-based, Canis lupus familiaris; settings: in vivo
[19] = target: Glutathione S-transferase P (Homo sapiens) (UniProt P09211); test: Drug metabolism in human whole blood assessed as GSTP1-1-mediated GSH conjugation; format: tissue-based
[20] = AUC (infinity) in beagle dog at 10 mg/kg, po; format: ADME, organism-based, Canis lupus familiaris; design: dose 10 mg/kg, time infinity, route oral; settings: in vivo
[21] = Oral bioavailability in beagle dog at 10 mg/kg; format: ADME, organism-based, Canis lupus familiaris; settings: in vivo
[22] = Hepatic extraction ratio in human hepatocytes at 10 uM incubated for 2 hrs by LC-MS analysis; format: ADME, cell-based, Hepatocyte; settings: read-out: ERH
[23] = Hepatic extraction ratio in human liver microsomes; format: ADME, Microsome; settings: read-out: ERH
[24] = Cmax in CD1 mouse at 10 mg/kg, po; format: ADME, organism-based; design: dose 10 mg/kg, route oral; settings: in vivo
[25] = Tmax in CD1 mouse at 10 mg/kg, po; format: ADME, organism-based; settings: in vivo
[26] = AUC (infinity) in CD1 mouse at 10 mg/kg, po; format: ADME, organism-based; design: dose 10 mg/kg, route oral, time infinity; settings: in vivo
[27] = Oral bioavailability in CD1 mouse at 10 mg/kg; format: ADME, organism-based; settings: in vivo
[28] = Half life in presence of GSH in phosphate buffer at 1 uM at 37 degC by LC-MS/M analysis; format: physicochemical; settings: phosphate buffer with GSH
[29] = Half life in mouse whole blood at 5 uM by LC-MS/MS analysis; format: ADME, tissue-based
[30] = Half life in dog whole blood at 5 uM by LC-MS/MS analysis; format: ADME, tissue-based, Canis lupus familiaris
[31] = Half life in human whole blood at 5 uM by LC-MS/MS analysis; format: ADME, tissue-based
[32] = Protein binding in mouse plasma; format: ADME, cell-free; settings: read-out: PPB (converted)
[33] = Solubility in FaSSIF at pH 6.5; format: physicochemical
[34] = Apparent permeability in pig LLC-PK1 cells; format: ADME, cell-based, Sus scrofa; settings: read-out: permeability
[35] = Permeability ratio in pig LLC-PK1 cells; format: ADME, cell-based, Sus scrofa
[36] = Protein binding in human plasma; format: ADME, cell-free; settings: read-out: PPB (converted)
[37] = test system: GTPase KRas (Homo sapiens), P01116 [G12C]; test: Inhibition of KRAS G12C mutant in human NCI-H358 cells assessed as reduction in ERK phosphorylation incubated for 3 hrs by in-cell western method
[38] = Drug metabolism in mouse hepatocytes assessed as parent compound remaining at 10 uM incubated for 2 hrs by LC-MS analysis; format: ADME, cell-based, Hepatocyte; settings: read-out: Stability

GTPase KRas, sequence (P01116 whole entry G12C): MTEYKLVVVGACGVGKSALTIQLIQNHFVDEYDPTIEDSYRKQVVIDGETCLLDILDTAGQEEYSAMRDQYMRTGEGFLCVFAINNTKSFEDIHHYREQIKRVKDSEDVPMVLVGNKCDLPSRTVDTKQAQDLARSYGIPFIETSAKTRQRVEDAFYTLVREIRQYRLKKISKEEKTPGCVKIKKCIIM
GTPase KRas (Homo sapiens), P01116 [G12C], sequence (P01116 whole entry G12C): as above
Glutathione S-transferase P (Homo sapiens), sequence (P09211 2-210 limits assumed): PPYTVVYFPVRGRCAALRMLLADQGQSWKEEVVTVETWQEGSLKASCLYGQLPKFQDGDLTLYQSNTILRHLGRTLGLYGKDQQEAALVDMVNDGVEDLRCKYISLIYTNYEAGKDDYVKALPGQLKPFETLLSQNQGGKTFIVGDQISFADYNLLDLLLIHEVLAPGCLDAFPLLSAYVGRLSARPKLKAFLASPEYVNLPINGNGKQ

C=CC(=O)N1CCN(c2nc(OC[C@@H]3CCCN3C)nc3c2CCN(c2cccc4ccccc24)C3)C(CCO)C1 (stereo partly specified)
IC50 [1]: 4840 nM

C=CC(=O)N1CCN(c2nc(OC[C@@H]3CCCN3C)nc3c2CCN(c2cccc4cccc(C)c24)C3)C[C@@H]1CC#N
clearance [2]: 31.6 mL/min/kg | half-life [3]: 1.33 h | Vd [4]: 1.91 L/kg | Activity [5]: 20% | Cmax [6]: 1660 ng/mL | Tmax [7]: 0.5 h | AUC(0-inf) [8]: 4910 ng·h/mL | bioavailability [9]: 31.1% | Activity [10]: 60% | Activity [11]: 80% | Activity [12]: 100% | Activity [13]: 100% | half-life [14]: 0.966 h | clearance [15]: 151 mL/min/kg | Vd [16]: 6.16 L/kg | Cmax [17]: 17.8 ng/mL | Tmax [18]: 1.17 h | Drug metabolism [19]: Metabolite detected | AUC(0-inf) [20]: 39.5 ng·h/mL | bioavailability [21]: 3.67% | IC50 [1]: 1 nM

C=CC(=O)N1CCN(c2nc(OC[C@@H]3CCCN3C)nc3c2CCN(c2c(C)c(C)cc4[nH]ncc24)C3)CC1
hepatic extraction ratio at 2 h, 10 µM [22]: < 0.55 | hepatic extraction ratio [23]: < 0.55 | IC50 [1]: 254 nM

C=CC(=O)N1CCN(c2nc(OC[C@@H]3CCCN3C)nc3c2CCN(c2cccc4cccc(C(F)(F)F)c24)C3)C[C@@H]1CC#N
IC50 [1]: 4 nM

C=CC(=O)N1CCN(c2nc(OC[C@@H]3CCCN3C)nc3c2CCN(c2cccc4ccccc24)C3)CC1
half-life [3]: 0.908 h | Vd [4]: 0.996 L/kg | Cmax [24]: 131 ng/mL | Tmax [25]: 0.5 h | AUC [26]: 302 ng·h/mL | F [27]: 13.9% | half-life at 1 µM [28]: 17 h | IC50 [1]: 4400 nM

C=C(OC)C(=O)N1CCN(c2nc(OC[C@@H]3CCCN3C)nc3c2CCN(c2cccc4cccc(Cl)c24)C3)C[C@@H]1CC#N
half-life at 5 µM [29]: > 50 h | half-life at 5 µM [30]: > 50 h | half-life at 5 µM [31]: 40 h | IC50 [1]: > 5000 nM

COC/C=C/C(=O)N1CCN(c2nc(OC[C@@H]3CCCN3C)nc3c2CCN(c2cccc4cccc(Cl)c24)C3)C[C@@H]1CC#N
half-life at 5 µM [29]: 11 h | half-life at 5 µM [30]: 22 h | half-life at 5 µM [31]: > 50 h | IC50 [1]: 9 nM

C=CC(=O)N1CCN(c2nc(OC[C@@H]3CCCN3C)nc3c2CCN(c2c(C(C)C)ccc4[nH]ncc24)C3)CC1
IC50 [1]: 1180 nM

C=CC(=O)N1CCN(c2nc(OC[C@@H]3CCCN3C)nc3c2CCN(c2cccc4ccccc24)C3)C[C@@H]1CC#N
hepatic extraction ratio at 2 h, 10 µM [22]: 0.9 | hepatic extraction ratio [23]: 0.45 | half-life at 1 µM [28]: 4 h | fraction unbound [32]: 0.05 | solubility [33]: 800 µg/mL (≈ 1450 µM) | Papp [34]: 2.2 ×10⁻⁶ cm/s | Ratio [35]: 28 | fraction unbound [36]: 0.05 | IC50 [1]: 10 nM | fIC50 [37]: 200 nM

C=CC(=O)N1CCN(c2nc(OC[C@@H]3CCCN3C)nc3c2CCN(c2cccc4cccc(OC)c24)C3)C[C@@H]1CC#N
IC50 [1]: 22 nM

C=CC(=O)N1CCN(c2nc(OC[C@@H]3CCCN3C)nc3c2CCN(c2c(C(F)(F)F)ccc4[nH]ncc24)C3)CC1
hepatic extraction ratio at 2 h, 10 µM [22]: < 0.55 | hepatic extraction ratio [23]: < 0.55 | IC50 [1]: 351 nM

C=CC(=O)N1CCN(c2nc(OC[C@@H]3CCCN3C)nc3c2CCN(c2cccc4ccccc24)C3)C[C@H]1CC#N
half-life at 1 µM [28]: 1 h | IC50 [1]: 1020 nM

CN1CCC[C@H]1COc1nc2c(c(N3CCN(C(=O)/C=C/CF)[C@@H](CC#N)C3)n1)CCN(c1cccc3cccc(Cl)c13)C2
half-life at 5 µM [29]: 11 h | half-life at 5 µM [30]: 9 h | half-life at 5 µM [31]: > 50 h | IC50 [1]: 3 nM

C=CC(=O)N1CCN(c2nc(OC[C@@H]3CCCN3C)nc3c2CCN(c2cccc4cccc(CC)c24)C3)C[C@@H]1CC#N
IC50 [1]: 6 nM

C=CC(=O)N1CCN(c2nc(OC[C@@H]3CCCN3C)nc3c2CCN(c2cccc4ccccc24)C3)CC1CO (stereo partly specified)
IC50 [1]: 4630 nM

C=CC(=O)N1CCN(c2nc(OC[C@@H]3CCCN3C)nc3c2CCN(c2c(CC)ccc4[nH]ncc24)C3)CC1
IC50 [1]: 1080 nM

C=CC(=O)N1CCN(c2nc(OC[C@@H]3CCCN3C)nc3c2CCN(c2cccc4cccc(C#N)c24)C3)C[C@@H]1CC#N
IC50 [1]: 64 nM

C=CC(=O)N1CCN(c2nc(OC[C@@H]3CCCN3C)nc3c2CCN(c2cccc4ccccc24)C3)C(CO)C1 (stereo partly specified)
IC50 [1]: 4530 nM

C=CC(=O)N1CCN(c2nc(OC[C@@H]3CCCN3C)nc3c2CCN(c2cccc4ccccc24)C3)CC1CCO (stereo partly specified)
IC50 [1]: > 5000 nM

C=CC(=O)N1CCN(c2nc(OC[C@@H]3CCCN3C)nc3c2CCN(c2cccc4cccc(Cl)c24)C3)C[C@@H]1CC#N
clearance [2]: 37.3 mL/min/kg | half-life [3]: 0.496 h | Vd [4]: 0.867 L/kg | Activity [5]: 70% | Cmax [6]: 2460 ng/mL | Tmax [7]: 0.25 h | AUC(0-inf) [8]: 2270 ng·h/mL | bioavailability [9]: 16.9% | Activity [10]: 89% | Activity [11]: > 90% | Activity [12]: 100% | Activity [13]: 100% | half-life [14]: 0.826 h | clearance [15]: 225 mL/min/kg | Vd [16]: 7.91 L/kg | Cmax [17]: 16.3 ng/mL | Tmax [18]: 0.833 h | Drug metabolism [19]: Metabolite detected | AUC(0-inf) [20]: 31.9 ng·h/mL | bioavailability [21]: 4.12% | half-life at 5 µM [29]: 5 h | half-life at 5 µM [30]: 2 h | half-life at 5 µM [31]: 14 h

C=CC(=O)N1CCN(c2nc(OC[C@@H]3CCCN3C)nc3c2CCN(c2cccc4ccccc24)C3)C(CC#N)C1 (stereo partly specified)
IC50 [1]: 3320 nM

C=CC(=O)N1CCN(c2nc(OC[C@@H]3CCCN3C)nc3c2CCN(c2c(C)ccc4[nH]ncc24)C3)CC1
IC50 [1]: 1500 nM

C=CC(=O)N1CCN(c2nc(OC[C@@H]3CCCN3C)nc3c2CCN(c2cccc4ccccc24)C3)CC1CC#N (stereo partly specified)
IC50 [1]: 14 nM

C=CC(=O)N1CCN(c2nc(OC[C@@H]3CCCN3C)nc3c2CCN(c2cc(O)cc4ccccc24)C3)CC1
remaining at 2 h, 10 µM [38]: 4%
